Calls of active or inactive are those of the source.
What was measured:
[1] = molecular target: T1, Microphthalmia-associated transcription factor (Homo sapiens, UniProt O75030); experiment: TRPM1 promoter luciferase signal decrease, dose response, MITF inhibitor project, cell-based, SK-MEL-5, cherry-picked, set 3 (AID 493073); type: functional
T1 sequence (O75030 whole entry): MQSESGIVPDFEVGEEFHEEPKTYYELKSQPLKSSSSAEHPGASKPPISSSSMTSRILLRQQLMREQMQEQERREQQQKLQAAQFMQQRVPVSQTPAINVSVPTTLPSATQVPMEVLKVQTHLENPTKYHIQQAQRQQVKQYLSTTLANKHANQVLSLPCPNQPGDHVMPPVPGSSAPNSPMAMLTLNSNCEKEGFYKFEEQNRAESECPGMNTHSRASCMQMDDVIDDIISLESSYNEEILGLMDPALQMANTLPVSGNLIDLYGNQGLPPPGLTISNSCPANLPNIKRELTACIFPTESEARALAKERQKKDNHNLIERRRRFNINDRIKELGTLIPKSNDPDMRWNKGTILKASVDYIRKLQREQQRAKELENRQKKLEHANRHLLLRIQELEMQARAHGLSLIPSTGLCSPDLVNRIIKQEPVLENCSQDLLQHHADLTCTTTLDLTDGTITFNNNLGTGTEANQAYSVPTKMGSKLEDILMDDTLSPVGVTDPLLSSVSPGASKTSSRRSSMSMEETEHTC

HEK293 [2] = experiment: cells; type: functional, cell-based; conditions: Homo sapiens
Tumor necrosis factor = Tumor necrosis factor (Homo sapiens, UniProt P01375); experiment: TNFa-triggered NF-kB activation inhibitors, SAR follow-up, cell-based, revised (AID 2337); type: functional
Chain of Tumor necrosis factor (P01375 whole entry): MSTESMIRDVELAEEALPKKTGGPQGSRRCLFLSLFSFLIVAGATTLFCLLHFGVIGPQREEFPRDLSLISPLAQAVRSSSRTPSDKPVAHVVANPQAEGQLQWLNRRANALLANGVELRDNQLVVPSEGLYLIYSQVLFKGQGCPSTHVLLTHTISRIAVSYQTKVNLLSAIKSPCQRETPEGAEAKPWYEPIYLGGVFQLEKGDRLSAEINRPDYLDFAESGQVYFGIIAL

HEK293 [3] = experiment: cells; type: functional, cell-based; conditions: Homo sapiens; remark: listed apart in the source
HEK293 [4] = experiment: NOD2 signaling inhibitors in MDP-stimulated cells, cell-based, uHTS, luminescence (AID 2001); type: functional; conditions: Homo sapiens
HEK293 [5] = experiment: cells; conditions: Homo sapiens
[6] = molecular target: Nucleotide-binding oligomerization domain-containing protein 1 (Homo sapiens, UniProt Q9Y239); experiment: NOD1 signaling inhibitors, SAR follow-up, revised (AID 2333); type: functional
Chain of Nucleotide-binding oligomerization domain-containing protein 1 (Q9Y239 whole entry, the tested form may be a part): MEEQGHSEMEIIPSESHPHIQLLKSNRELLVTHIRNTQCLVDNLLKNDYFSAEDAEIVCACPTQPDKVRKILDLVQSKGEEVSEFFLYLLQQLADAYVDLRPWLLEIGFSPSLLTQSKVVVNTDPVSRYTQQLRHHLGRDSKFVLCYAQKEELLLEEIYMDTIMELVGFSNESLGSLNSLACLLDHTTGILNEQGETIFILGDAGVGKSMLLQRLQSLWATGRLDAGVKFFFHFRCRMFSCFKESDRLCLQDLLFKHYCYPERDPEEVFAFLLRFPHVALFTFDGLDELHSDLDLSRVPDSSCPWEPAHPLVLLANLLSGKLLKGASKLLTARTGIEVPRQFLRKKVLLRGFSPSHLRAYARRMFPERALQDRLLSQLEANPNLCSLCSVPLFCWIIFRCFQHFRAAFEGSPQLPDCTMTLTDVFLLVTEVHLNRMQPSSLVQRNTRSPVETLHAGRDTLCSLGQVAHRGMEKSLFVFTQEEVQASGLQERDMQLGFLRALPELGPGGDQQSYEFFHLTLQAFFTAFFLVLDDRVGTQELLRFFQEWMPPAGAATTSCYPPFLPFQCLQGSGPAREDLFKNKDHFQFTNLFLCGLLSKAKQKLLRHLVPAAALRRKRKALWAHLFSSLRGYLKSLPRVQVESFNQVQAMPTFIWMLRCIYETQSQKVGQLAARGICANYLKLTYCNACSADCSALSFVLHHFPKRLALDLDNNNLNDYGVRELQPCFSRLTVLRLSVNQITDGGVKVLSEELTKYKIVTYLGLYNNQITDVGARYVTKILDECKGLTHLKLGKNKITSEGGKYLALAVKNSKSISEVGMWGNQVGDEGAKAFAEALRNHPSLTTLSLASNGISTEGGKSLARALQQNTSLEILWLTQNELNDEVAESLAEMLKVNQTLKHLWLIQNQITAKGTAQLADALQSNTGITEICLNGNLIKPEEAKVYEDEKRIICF

HEK293 [7] = experiment: NOD1 signaling inhibitors, primary screen, cell-based, luminescence, uHTS (AID 1578); type: functional; conditions: Homo sapiens
[8] = molecular target: Sphingosine 1-phosphate receptor 1 (Homo sapiens, UniProt P21453); experiment: Fluorescence-based counterscreen assay for S1P4 agonists: Cell-based dose response high throughput screening assay to identify agonists of the Sphingosine 1-Phosphate Receptor 1 (S1P1). [Related pubchem assays (depositor defined):AID1509, AID1523, AID1801, AID463107, AID463118, AID463119, AID463122, AID463123, AID463129, AID463225, AID504400, AID504460]; type: functional
Chain of Sphingosine 1-phosphate receptor 1 (P21453 whole entry): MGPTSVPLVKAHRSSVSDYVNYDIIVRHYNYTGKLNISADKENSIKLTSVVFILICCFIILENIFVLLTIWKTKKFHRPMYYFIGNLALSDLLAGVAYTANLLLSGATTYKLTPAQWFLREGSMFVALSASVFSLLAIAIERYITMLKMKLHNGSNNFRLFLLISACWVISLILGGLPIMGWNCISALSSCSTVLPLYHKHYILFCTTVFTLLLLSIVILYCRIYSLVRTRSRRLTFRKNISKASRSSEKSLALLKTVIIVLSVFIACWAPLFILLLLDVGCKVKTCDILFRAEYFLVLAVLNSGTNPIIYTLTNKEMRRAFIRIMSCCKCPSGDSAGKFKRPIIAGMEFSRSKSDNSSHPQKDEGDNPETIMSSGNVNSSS

[9] = molecular target: T2, Sphingosine 1-phosphate receptor 4 (Homo sapiens, UniProt O95977); experiment: Fluorescence dose response cell-based high throughput screening assay for agonists of the Sphingosine 1-Phosphate Receptor 4 (S1P4). [Related pubchem assays: 1509 (Primary screen.), 1523 (Confirmation screen in triplicates.)]; type: functional
T2 sequence (O95977 whole entry): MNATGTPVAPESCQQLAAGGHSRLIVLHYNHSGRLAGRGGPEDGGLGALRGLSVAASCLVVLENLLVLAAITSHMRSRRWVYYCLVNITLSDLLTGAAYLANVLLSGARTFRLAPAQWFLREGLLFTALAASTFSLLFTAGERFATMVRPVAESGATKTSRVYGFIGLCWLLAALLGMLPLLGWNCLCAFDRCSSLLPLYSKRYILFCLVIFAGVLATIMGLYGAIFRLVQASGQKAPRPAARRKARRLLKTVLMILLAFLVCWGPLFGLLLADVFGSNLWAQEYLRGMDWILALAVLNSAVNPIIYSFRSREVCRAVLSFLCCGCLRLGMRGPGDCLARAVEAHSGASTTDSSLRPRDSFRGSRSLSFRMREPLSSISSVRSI

Genome polyprotein = Genome polyprotein (dengue virus type 2, UniProt P29990); experiment: Dengue-2 NS5 methyltransferase inhibitors, primary screen, biochemical, confirmation dose response (AID 588689); type: functional
Chain of Genome polyprotein (P29990 2492-3391 limits assumed): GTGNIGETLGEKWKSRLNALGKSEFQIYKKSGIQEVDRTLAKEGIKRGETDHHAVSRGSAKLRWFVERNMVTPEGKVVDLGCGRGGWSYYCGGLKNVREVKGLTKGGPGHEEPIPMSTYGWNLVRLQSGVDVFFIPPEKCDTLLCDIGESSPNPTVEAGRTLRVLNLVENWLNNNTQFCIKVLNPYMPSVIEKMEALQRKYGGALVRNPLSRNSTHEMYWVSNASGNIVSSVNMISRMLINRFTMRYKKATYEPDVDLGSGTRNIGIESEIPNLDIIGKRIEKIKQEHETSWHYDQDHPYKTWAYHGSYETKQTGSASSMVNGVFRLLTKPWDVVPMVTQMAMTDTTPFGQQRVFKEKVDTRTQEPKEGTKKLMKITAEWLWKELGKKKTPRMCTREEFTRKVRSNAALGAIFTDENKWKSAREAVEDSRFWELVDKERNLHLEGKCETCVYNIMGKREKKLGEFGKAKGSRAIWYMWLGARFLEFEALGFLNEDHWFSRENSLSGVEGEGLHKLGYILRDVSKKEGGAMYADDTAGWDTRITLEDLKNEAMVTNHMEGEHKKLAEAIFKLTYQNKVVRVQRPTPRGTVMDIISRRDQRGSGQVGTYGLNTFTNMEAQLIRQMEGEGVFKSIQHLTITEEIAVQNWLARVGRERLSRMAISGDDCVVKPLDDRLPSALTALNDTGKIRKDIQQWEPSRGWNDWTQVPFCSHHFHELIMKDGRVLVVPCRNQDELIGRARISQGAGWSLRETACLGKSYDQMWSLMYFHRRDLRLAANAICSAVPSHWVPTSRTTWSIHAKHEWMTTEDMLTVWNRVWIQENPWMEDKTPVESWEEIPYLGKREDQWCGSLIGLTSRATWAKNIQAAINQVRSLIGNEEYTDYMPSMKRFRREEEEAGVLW

[10] = molecular target: T3, E3 ubiquitin-protein ligase XIAP (Homo sapiens, UniProt P98170); experiment: Counter Screen using XIAP-Bir3 for Chemical Antagonists of Bir1/2 domains of IAP-family anti-apoptotic proteins. [Related pubchem assays (depositor defined):AID1018, AID1449, AID1514, AID1638, AID1749, AID1750, AID488957, AID488963]
T3 sequence (P98170 whole entry): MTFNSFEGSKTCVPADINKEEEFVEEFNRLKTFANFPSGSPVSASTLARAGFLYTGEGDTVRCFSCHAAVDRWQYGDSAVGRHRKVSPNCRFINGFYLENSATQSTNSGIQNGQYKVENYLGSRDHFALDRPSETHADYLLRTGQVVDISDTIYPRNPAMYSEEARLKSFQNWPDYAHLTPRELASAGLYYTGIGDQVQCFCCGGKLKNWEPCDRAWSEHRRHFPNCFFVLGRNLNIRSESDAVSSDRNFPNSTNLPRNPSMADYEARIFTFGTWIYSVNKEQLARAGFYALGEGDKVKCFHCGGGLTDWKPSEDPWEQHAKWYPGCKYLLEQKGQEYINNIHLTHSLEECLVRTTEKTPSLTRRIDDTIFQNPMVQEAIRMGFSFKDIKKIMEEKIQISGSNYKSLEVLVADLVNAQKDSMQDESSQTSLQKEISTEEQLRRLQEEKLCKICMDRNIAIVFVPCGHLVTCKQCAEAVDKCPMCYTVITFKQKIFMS

[11] = molecular target: T3, E3 ubiquitin-protein ligase XIAP; experiment: XIAP antagonists, biochemical, IAP family, fluorescence polarization (AID 1018); type: functional
Hexokinase = Hexokinase (Trypanosoma brucei, UniProt Q38C41); experiment: Confirmation assay for inhibitors of Trypanosoma brucei hexokinase 1-Analogue-first series. [Related pubchem assays (depositor defined):AID1430, AID1632, AID2516, AID2560, AID2579, AID2600, AID449725, AID492951]; type: functional
Chain of Hexokinase (Q38C41 whole entry): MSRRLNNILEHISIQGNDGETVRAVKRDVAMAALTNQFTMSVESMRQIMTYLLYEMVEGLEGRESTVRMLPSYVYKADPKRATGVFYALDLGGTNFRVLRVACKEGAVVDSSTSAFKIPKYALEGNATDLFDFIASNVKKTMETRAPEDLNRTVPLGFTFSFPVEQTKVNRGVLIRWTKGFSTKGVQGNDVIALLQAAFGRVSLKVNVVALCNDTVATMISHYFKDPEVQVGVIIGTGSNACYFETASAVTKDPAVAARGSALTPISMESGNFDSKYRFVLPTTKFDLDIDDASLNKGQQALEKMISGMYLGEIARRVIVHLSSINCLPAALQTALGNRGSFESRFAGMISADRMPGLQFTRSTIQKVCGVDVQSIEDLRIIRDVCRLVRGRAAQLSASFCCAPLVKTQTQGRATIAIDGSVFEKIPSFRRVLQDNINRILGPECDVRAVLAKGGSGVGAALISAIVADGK

[12] = molecular target: T2, Sphingosine 1-phosphate receptor 4; experiment: Late-stage fluorescence dose response cell-based assay to identify agonists of the Sphingosine 1-Phosphate Receptor 4 (S1P4): purchased compounds EC50. [Related pubchem assays (depositor defined):AID1509, AID1523, AID1563, AID1686, AID1701, AID1801]; type: functional
[13] = molecular target: T4, Alkaline phosphatase, tissue-nonspecific isozyme (Homo sapiens, UniProt P05186); experiment: human TNAP enzyme inhibitors, SAR follow-up, biochemical, luminescent, dose response (AID 1056)
T4 sequence (P05186 whole entry): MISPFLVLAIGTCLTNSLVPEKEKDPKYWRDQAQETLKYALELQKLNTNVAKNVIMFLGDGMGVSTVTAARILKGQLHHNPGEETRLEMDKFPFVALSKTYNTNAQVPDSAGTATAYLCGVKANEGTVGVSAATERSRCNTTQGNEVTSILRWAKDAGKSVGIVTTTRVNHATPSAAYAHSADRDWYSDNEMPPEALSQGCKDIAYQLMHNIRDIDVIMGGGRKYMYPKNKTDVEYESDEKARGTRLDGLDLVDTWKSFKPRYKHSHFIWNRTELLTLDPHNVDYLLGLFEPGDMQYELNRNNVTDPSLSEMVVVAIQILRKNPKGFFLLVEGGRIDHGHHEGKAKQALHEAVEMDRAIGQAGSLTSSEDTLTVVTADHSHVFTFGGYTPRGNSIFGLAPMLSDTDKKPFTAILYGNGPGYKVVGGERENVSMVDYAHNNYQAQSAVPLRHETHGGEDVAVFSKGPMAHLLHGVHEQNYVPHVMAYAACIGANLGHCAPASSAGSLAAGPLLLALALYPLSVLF

[14] = molecular target: Glyceraldehyde-3-phosphate dehydrogenase (Homo sapiens, UniProt P04406)
Chain of Glyceraldehyde-3-phosphate dehydrogenase (P04406 whole entry): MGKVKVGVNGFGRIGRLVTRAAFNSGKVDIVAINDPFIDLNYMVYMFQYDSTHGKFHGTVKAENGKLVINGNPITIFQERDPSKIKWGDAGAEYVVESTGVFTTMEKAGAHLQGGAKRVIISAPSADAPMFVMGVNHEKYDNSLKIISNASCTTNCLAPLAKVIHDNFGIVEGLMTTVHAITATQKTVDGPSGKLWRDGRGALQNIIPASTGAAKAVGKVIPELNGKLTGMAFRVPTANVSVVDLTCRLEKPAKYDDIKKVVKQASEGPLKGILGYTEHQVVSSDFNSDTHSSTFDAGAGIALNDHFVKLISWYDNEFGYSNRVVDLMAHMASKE

O=C(c1ccc(S(=O)(=O)Cc2ccccc2Cl)c([N+](=O)[O-])c1)N1CCN(c2ccccn2)CC1
AC50 [1]: 9.49 µM (active) | IC50 (HEK293 [2]): 2.81 µM (active) | IC50 (Tumor necrosis factor): 4.53 µM (active) | IC50 (HEK293 [3]): > 20 µM (inactive) | IC50 (HEK293 [4]): 3.63 µM (active) | IC50 (HEK293 [5]): 16.3 µM (active) | IC50 [6]: 4.24 µM (active) | EC50 (HEK293 [7]): 11.8 µM (active)

Cc1cc(-n2c(=O)c(C#N)cc3c(=O)n4ccccc4nc32)no1
EC50 [8]: 10.1 µM (inactive) | EC50 [9]: 4.43 µM (active)

CCc1c(C)sc(NC(=O)OC)c1C(=O)N1CCCCC1
IC50 (Genome polyprotein): > 100 µM (active) | IC50 [10]: 54.6 µM (active) | IC50 [11]: > 25 µM (not active)

Cc1cc(=O)n(-c2ccccc2)s1
IC50 (Hexokinase): > 25 µM (inactive)

Cc1ccc(OC(C)C(=O)Nc2ccc(Cl)cc2Cl)c([N+](=O)[O-])n1 (stereo not given)
EC50 [12]: > 50 µM (inactive)

O=S(=O)(Nc1cnc2ccccc2c1)c1cc(Cl)cc(Cl)c1O
IC50 [13]: 69.6 µM (active) | IC50 [14]: > 100 µM (not active)

CCCc1ccc(C(=O)Nc2cc(Cl)ccc2C(=O)O)cc1
IC50 (Hexokinase): 4.54 µM (active)

N#Cc1c(-n2cccc2C=O)sc2c1CCCC2
EC50 [8]: > 49.8 µM (inactive) | EC50 [9]: 32.2 µM (not active)
